Legend:
Assay type in all cases: cell-based
[1] = tested on: Nrf2 transcription factor (Nrf2-ARE); assay: Nrf2-ARE induction, luciferase activity in AREc32 (MCF7 cells stably transfected with ARE-LUC); settings: Homo sapiens, 24 h, basal = 1, read-out: Relative Luciferase activity (response versus basal)
Method: For the study of Nrf2 transcription factor, the cellular line AREC32 was used, which is characterized for being stably transfected with the reporter gene of Luciferase linked to the ARE sequence. In the presence electrophilic compounds or oxidative stress, Nrf2 factor binds to ARE sequences, activating luciferase expression and producing a proportional quantity of luciferase. The AREc32 cells were cultured in DMEM media with glutamax, supplemented with 10% fetal bovine serum (FBS), 1% penicillin-streptomycin and 1.6% geneticine (G418) (obtained from GIBCO, Madrid, Spain). Cells were cultured in 75 cm flasks with 11 mL of specific media, incubated at 37° C. and 5% of CO2. Cells were passed every 4-6 days (1:4), whenever the confluence reached 80%. For the experiments, cells were cultured in transparent surface 96 well plates at a density of […] with 100 μL/well. After 24 h in culture, cells were treated with the compounds at different concentrations (1, 10, 30 and 60 μM) during 24 h at 37° C. and 5% CO2. In every experiment it was also included a basal variable, a variable with 10 μM tert-butyl hydroquinone (TBHQ) (positive control) and the variables of the study in a final volume of 100 μL. After an incubation of 24 h with the compounds, luciferase activity was measured by bioluminescence using the commercial kit “Luciferase assay system” (Promega E1500). For that, treatments were removed and cells were washed with 100 μL of PBS 0.1 M. After washing, 20 μL of “lysis buffer” reactive was added to each well. 10 minutes later, luminescence was measured using the multi-well reader FluoStar optima (BMG labtech).
Luminescence was measured in arbitrary units and is directly proportional to luciferase quantity in the wells, which is also directly proportional to Nrf2 transcription factor induction by the specific compound at the established concentration. Measurements were made in duplicate and values were normalized to the basal luminescence value, considered as 1.
The results of Nrf2 induction obtained for the compounds 1 to 16 are shown in Table 1 and are expressed as induction, considering 1 the non-treated cells.

SH-SY5Y cells [2] = assay: Neuroprotection against rotenone/oligomycin A, pre-incubation model, MTT; settings: Homo sapiens, compound 1 μM pre-incubation 24 h, then Rot/Olig (30/10 μM); for viability at 1 µM: read-out: % Survival
Method: (§1) SH-SY5Y cells [ECACC 94030304], in 5 to 16 passage after defreezing were maintained in Eagle media modified by Dulbecco (DMEM) containing 15 non-essential amino acids and supplemented with 10% fetal bovine serum, 1 mM glutamine, 50 units/mL penicillin/streptomycin (obtained from GIBCO, Madrid, Spain). Cells were seeded in flasks containing supplemented media and were maintained in an incubator at 37° C. and 5% CO2. 1:4 passes were performed twice per week. For the experiments, cells were seeded in 24 well-plates at a density of 2×10^5 cells/well, or in 96 well-plates at a density of 8×10^4 cells/well. For cytotoxicity experiments, cells were treated with the compounds before confluence with DMEM media supplemented with fetal bovine serum 1%.
(§2) In order to assess cellular viability, we measured the metabolic reduction of 3-(4,5-Dimethylthiazol-2-yl)-2,5 diphenyltetrazolium bromide (MTT). MTT is an indirect assay to measure cellular viability. It is a colorimetric method based on the reduction of 3-(4,5-Dimethylthiazol-2-yl)-2,5 diphenyltetrazolium. This process is performed by the mitochondrial enzyme succinate-dehydrogenase present in metabolic active cells. Thus, the water-soluble yellow MTT (tetrazolium salt) is transformed into a insoluble purple compound (formazan). Quantity of living cells is directly proportional to the quantity of formazan (Mosmann, 1983, J Immunol Methods, 65: 55-63). […] Therefore, with this assay we can measure cellular surviving and proliferation and also, we can determine the cytotoxicity of potential neuroprotective compounds. In order to assess cellular viability in SH-SY5Y cell line, we added 30 μl/well of MTT (5 mg/mL) and after 2 h, medium was carefully removed to avoid losing the formazan and was diluted in 300 μL of DMSO. Afterwards, samples were transferred to a 96 well-plate and the absorbance was measured at 570 nm using a absorbance/fluorescence reader FluoStar optima®. Every MTT assay was performed in triplicates. Absorbance values obtained with the toxic alone were subtracted to the absorbance values obtained in basal conditions (without treatment). That result was considered as the 100% of cell death and the values obtained with the compounds in the presence of the toxic stimulus were normalized as percentages of that value. For determining the surviving percentage, those percentages of cell death were subtracted to 100.
(§3) Neuroprotection elicited by the compounds of the invention 1-16: The activation of Nrf2-ARE pathway by different compounds exerts neuroprotective effects against toxic models based on oxidative stress via the expression of cytoprotective genes. […] We evaluated the neuroprotective potential of the compounds using the human neuroblastoma cell line using the following cytotoxicity models: 1) oxidative stress induced by rotenone+oligomycin, both blockers of the electron transport chain as previously described (Halliwell, 1992, J Neurochem, 59: 1609-23, Newhouse y col., 2004, Toxicol Sci, 79: 137-46), and 2) cytotoxicity induced by the electrophilic compound Menadione. This compound produces oxidative stress after being metabolized by microsomal enzymes in the cell which produces hydroxyl radical and oxygen reactive species. As a consequence, there is a depolarization of mitochondrial membrane generating a release of apoptotic factors such as cytochrome c, and activating the caspase cascade (Loor y col., 2010, Free Radic Biol Med, 49: 1925-36, Chuang y col., 2002, Cancer Res, 62: 6246-54). Caspase 3 activation can produce the lysis of proteins and induce DNA fragmentation, leading to cell death (Gerasimenko y col., 2002, J Cell Sci, 115: 485-97).
For this study we propose a protocol in which the cells are pre-incubated with each of the derivatives at 1 μM for 24 h. After the pre-incubation period, the medium was removed and replaced by culture medium with the rotenone/oligomycin-A (30 μM and 10 μM, respectively) toxic mixture. […]

SH-SY5Y cells [3] = assay: Neuroprotection against rotenone/oligomycin A, pre- and co-incubation model, MTT; settings: Homo sapiens, compound 1 μM pre-incubation 24 h and co-incubation 24 h with Rot/Olig (30/10 μM); for inhibition at 1 µM: read-out: % Protection; for viability at 1 µM: read-out: % Survival
Method: as §1, §2, §3
In this model, a 24 h pre-incubation period was performed in presence of the compounds synthesized at a concentration of 1 μM. Thereafter, a 24 h co-incubation period was added, in presence of the compounds with rotenone/oligomycin A (30 μM/10 μM) mixture. After 24 h, cell viability was assessed by the MTT reduction method. […]

SH-SY5Y cells [4] = assay: Neuroprotection against oxidative stress induced by menadione, pre- and co-incubation, MTT; settings: Homo sapiens, 24 h, compound 1 μM pre- and co-incubation, Menadione (8 mM); for viability at 1 µM: read-out: % Survival
Method: as §1, §2, §3
To further confirm the neuroprotective capacity in another model of oxidative stress, menadione was selected as toxic stimulus. […]

Structure (SMILES) | fold induction at 10 µM [1] | fold induction at 30 µM [1] | fold induction at 60 µM [1] | percent protection against toxin-induced cell death at 1 µM (SH-SY5Y cells [2]) [%] | viability at 1 µM (SH-SY5Y cells [2]) [%] | inhibition at 1 µM (SH-SY5Y cells [3]) [%] | viability at 1 µM (SH-SY5Y cells [3]) [%] | % protection against menadione toxicity at 1 µM (SH-SY5Y cells [4]) [%] | viability at 1 µM (SH-SY5Y cells [4]) [%]
C/C=C/C(=O)Oc1ccc2[nH]cc(CCNC(C)=O)c2c1 [Compound 1, 3-(2-acetamidoethyl)-1H-indol-5-yl (E)-2-butenoate] | 2.34 ± 0.2 | 12.1 ± 1.3 | 30.7 ± 1.7 | 28.5 | 70.4 ± 4.03 | 28.8 | 77 ± 1.3 | 63.3 | 87.7 ± 1.74
CC(=O)NCCc1c[nH]c2ccc(OC(=O)/C=C/c3ccccc3)cc12 [Compound 2, 3-(2-acetamidoethyl)-1H-indol-5-yl cinnamate] | 1.63 ± 0.2 | 1.78 ± 0.1 | 2.54 ± 0.3 | 34.7 | 72.7 ± 3.59 | 48 | 73.7 ± 4.65 | 32.5 | 74 ± 3.18
CC(=O)NCCc1c[nH]c2ccc(OC(=O)/C=C/c3ccc(C)cc3)cc12 [Compound 3, 3-(2-acetamidoethyl)-1H-indol-5-yl (E)-3-(4-methylphenyl)acrylate] | 1.26 ± 0.1 | 2.03 ± 0.1 | 3.26 ± 0.3 | 20.5 | 67 ± 3.21 | 55.1 | 76.4 ± 3.89 | 25 | 71.4 ± 2.43
COc1ccccc1/C=C/C(=O)Oc1ccc2[nH]cc(CCNC(C)=O)c2c1 [Compound 4, 3-(2-acetamidoethyl)-1H-indol-5-yl (E)-3-(2-methoxyphenyl)acrylate] | 1.67 ± 0.1 | 2.01 ± 0.1 | 2.53 ± 0.1 | 19 | 67.1 ± 2.61 | 28.1 | 69.9 ± 4.17 | 67.1 | 90.5 ± 1.97
COc1cccc(/C=C/C(=O)Oc2ccc3[nH]cc(CCNC(C)=O)c3c2)c1 [Compound 5, 3-(2-acetamidoethyl)-1H-indol-5-yl (E)-3-(3-methoxyphenyl)acrylate] | 1.39 ± 0.1 | 1.63 ± 0.2 | 2.09 ± 0.2 | 27.1 | 70.2 ± 2.42 | 57.6 | 78.7 ± 4.37 | 38.1 | 76 ± 3.31
COc1ccc(/C=C/C(=O)Oc2ccc3[nH]cc(CCNC(C)=O)c3c2)cc1 [Compound 6, 3-(2-acetamidoethyl)-1H-indol-5-yl (E)-3-(4-methoxyphenyl)acrylate] | 2.02 ± 0.2 | 3.4 ± 0.3 | 4.62 ± 0.4 | 29.8 | 70 ± 3.04 | 44.1 | 71.6 ± 3.94 | 35.8 | 74.7 ± 2.91
CC(=O)NCCc1c[nH]c2ccc(OC(=O)/C=C/c3ccc(O)cc3)cc12 [Compound 7, 3-(2-acetamidoethyl)-1H-indol-5-yl (E)-3-(4-hydroxyphenyl)acrylate] | 0.95 ± 0.1 | 1.09 ± 0.1 | 1.57 ± 0.1 | 32.5 | 71.5 ± 4.92 | 39.8 | 79.7 ± 2.37 | 61.8 | 86.8 ± 3.24
COc1cc(/C=C/C(=O)Oc2ccc3[nH]cc(CCNC(C)=O)c3c2)ccc1O [Compound 8, 3-(2-acetamidoethyl)-1H-indol-5-yl (E)-3-(4-hydroxy-3-methoxyphenyl)acrylate] | 1.11 ± 0.1 | 1.83 ± 0.1 | 2.36 ± 0.1 | 37 | 74 ± 3.13 | 41.7 | 81.1 ± 1.71 | 69.4 | 89.9 ± 1.86
CC(=O)NCCc1c[nH]c2ccc(OC(=O)/C=C/c3ccc(F)cc3)cc12 [Compound 9, 3-(2-acetamidoethyl)-1H-indol-5-yl (E)-3-(4-fluorophenyl)acrylate] | 1.92 ± 0.2 | 2.27 ± 0.2 | 4.21 ± 0.6 | 21.5 | 67.4 ± 2.13 | 40.5 | 69.6 ± 2.63 | 29.6 | 71.6 ± 3.74
CC(=O)NCCc1c[nH]c2ccc(OC(=O)/C=C/c3ccc(Br)cc3)cc12 [Compound 10, 3-(2-acetamidoethyl)-1H-indol-5-yl (E)-3-(4-bromophenyl)acrylate] | 1.53 ± 0.2 | 3.12 ± 0.5 | 13.3 ± 2.1 | 30.2 | 71.1 ± 2.61 | 40.8 | 70.4 ± 2.21 | 27.6 | 72.4 ± 3.75
COc1ccc2[nH]cc(CCNC(C)=O)c2c1 [Melatonin, reference compound] | – | – | – | 31.6 | 71.8 ± 2.81 | 31.1 | 68.3 ± 4.27 | 37.4 | 72.9 ± 5.24

— US20180105492A1, “COMPOUNDS DERIVED FROM 3-ALKYLAMINE-1H-INDOLYL ACRYLATE AND THEIR USE IN THE TREATMENT OF NEURODEGENERATIVE DISEASES” (FUNDACION PARA LA INVESTIGACION BIOMEDICA DEL HOSPITAL …, priority 2014, published 2018)
